Laboratory results from patent publication US7713559B2, “Amorphous water-soluble calcium citrate salts and method of making and using same” (Kraft Foods Global Brands LLC, priority 2004, dated 2010).
Values belong to the compound of their own block, whether it stands above or below them.

What was measured:
[1] = pH and initial solution appearance of powders added to water at 1 percent; format: physicochemical; details: powder added to water at a level of 1 percent
Procedure: Powders prepared according to the present invention, as described above, were added to water at a level of 1 percent to measure pH and assess initial solution appearance. The crystalline commercial 3:2 mole ratio TCC reference material was included for comparison.

[2] = shelf life testing of calcium-fortified RTD beverage; format: physicochemical; details: CRYSTAL LIGHT RTD lemon beverage
Procedure: Fortified RTD beverages were formulated with several forms of calcium citrate. The visual appearance, flavor, and stability of the products were evaluated over a seven-month period by an experienced panel. Identical samples of each fortified beverage were prepared for shelf life testing under both ambient (22° C.) and refrigerated (4° C.) storage conditions.
The freeze dried amorphous 2:2 mole ratio calcium citrate salt (17% calcium) of Example 1 was successfully used to fortify a ready-to-drink sugar-free lemon-flavored beverage (CRYSTAL LIGHT®) with 350 mg calcium per eight fluid ounce serving (“excellent source of calcium” level). To formulate the calcium-fortified powdered mix, eight fluid ounces of commercial CRYSTAL LIGHT® RTD beverage mix was mixed thoroughly with 2 g of the freeze dried amorphous 2:2 mole ratio calcium citrate salt.

[3] = dissolution in water and freedom from haze and sediment at 350 mg calcium per eight fluid ounce serving; format: physicochemical
Source text: The solution remained completely free of haze and sediment for at least two days of storage at room temperature. Similar or even better results were obtained from the salts prepared having calcium:citrate mole ratios lower than 2:2, even when dissolved in water at higher concentrations.
These powders, in spite of the sediment produced, would provide very acceptable performance in many, if not most, food applications, including instant beverage mixes and acidified RTD beverages.
This behavior might also be acceptable in some situations (i.e., opaque instant beverage mixes), but appears to represent a practical upper limit for applications that require high levels of soluble calcium and/or require a sediment-free transparent appearance.
As an alternative to freeze drying, an amorphous 2:2 mole ratio calcium citrate salt, using the same ingredients as in Example 1, was also successfully produced via spray drying (i.e., pilot scale drying using standard operating conditions and procedures). In this case, chilled calcium hydroxide and citric acid solutions were combined and rapidly spray dried before solidification or sediment formation could occur. […] In a large scale commercial process, the citric acid and calcium hydroxide (or other suitable reagents) would be beneficially combined just prior to spray drying to limit the potential for solidification or sediment formation.
One batch of the chilled citric acid solution was poured into a mix tank jacketed with cooling water and one batch of calcium hydroxide suspension was added with stirring. […] The clear solution was immediately pumped into a semi-works scale spray dryer, fitted with an atomizing nozzle, at a flow rate of about 0.5 kg per minute. Additional batches of citric acid solution and calcium hydroxide suspension were similarly added to the mix tank as needed to prevent complete emptying. A sample of fine white powder was collected from the spray dryer after ten minutes of operation. […] After a further fifteen minutes, the cooling water was shut off from the jacketed mix tank. […] In less than one hour, the atomizing nozzle and pipe between the mix tank and the spray dryer became plugged with an accumulated deposit of insoluble crystalline calcium citrate.

[4] = calcium-fortified powdered instant drink mixes reconstituted with cold water
Procedure: One sample of the amorphous salt (2.0 g) was combined with 17.0 g sweetened Cherry Kool-Aid® powdered instant drink mix in a 400 ml beaker. The powdered drink mix contained sugar, fructose, citric acid, calcium phosphate (not a significant source of calcium), artificial flavor, artificial colors, and ascorbic acid. Another sample of the amorphous salt (2.0 g) was combined with 2.0 g artificially-sweetened Lemon CRYSTAL LIGHT® powdered instant drink mix and placed in a 400 ml beaker. The powdered drink mix contained citric acid, potassium citrate, maltodextrin, aspartame, magnesium oxide, natural flavor, lemon juice solids, acesulfame potassium, artificial colors, and BHA.

[5] = room temperature; cited from earlier work
[6] = freeze dried powders of Example 1 or commercial salts, room temperature water, 350 mg calcium per eight fluid ounce serving

Compound: O=C([O-])CC(O)(CC(=O)O)C(=O)O.O=C([O-])CC(O)(CC(=O)O)C(=O)O.[Ca+2] [1:2, monocalcium citrate]
Initial Solution Appearance [1]: No haze; no sediment
Solution pH [1]: 3.4

Compound: O=C([O-])CC(O)(CC(=O)O)C(=O)[O-].[Ca+2] [2:2, dicalcium citrate]
sediment in fortified RTD beverage during shelf life evaluation ([2]; 350 mg calcium per eight fluid ounces, seven-month period, room temperature (22° C.) and refrigeration (4° C.)): remained sediment free
time solution remained completely free of haze and sediment ([3]; freeze dried powder, 2 g in 240 ml water, storage at room temperature): at least two
dissolution behaviour on addition to water [3, 6]: instantly dissolving clear solution
dissolution in cold water ([3]; larger spray dryer, sample collected after ten minutes of operation, feed cooled, 350 mg calcium per eight fluid ounces): rapidly dissolved in cold water without haze or precipitate
dissolution in water ([3]; larger spray dryer, sample collected after thirty minutes, cooling water shut off): did not dissolve completely in water
dissolution behaviour on addition to water ([3]; spray dried salt of Example 2 (pilot scale), 2 g in 240 ml room temperature water, 350 mg calcium per eight ounce serving): instantly dissolving clear solution
time solution remained completely free of sediment ([3]; spray dried salt of Example 2 (pilot scale), room temperature): at least three
dissolution when water was added to fortified drink mix ([4]; 2.0 g salt with Cherry Kool-Aid or Lemon CRYSTAL LIGHT mix, eight fluid ounces cold water, no stirring): dissolved immediately
time reconstituted beverage remained free of sediment ([4]; Cherry Kool-Aid and Lemon CRYSTAL LIGHT mixes, 350 mg calcium per serving): at least 24 hours
Initial Solution Appearance [1]: No haze; no sediment
Solution pH [1]: 4.1

sediment in fortified RTD beverage upon admixture of the ingredients ([2]; amounts to provide the same level of calcium): noticeable sediment formation
dissolution behaviour on addition to water [3, 6]: did not completely disperse in water
dissolution of the sediment ([4]; with rapid stirring or with the passage of time): did not dissolve
Compound: TCC tetrahydrate [3:2*, reference compound]
solubility in water [5]: less than 0.1%
soluble calcium provided per fluid ounce of water [5]: about 6 mg
haze and sediment produced at first, on or soon after addition to water ([3]; 350 mg calcium per eight fluid ounce serving): immediately produced a large amount of a coarse, gritty white sediment
sediment formation in reconstituted beverage ([4]; 1.7 g in place of the amorphous salt, Cherry Kool-Aid and Lemon CRYSTAL LIGHT mixes): large amounts of coarse gritty sediment were formed immediately

Compound: sesqui-calcium citrate [1.5:2]
Initial Solution Appearance [1]: No haze; no sediment
Solution pH [1]: 3.8
